Data reported in patent US20190175646A1, “METHODS AND COMPOSITIONS RELATING TO THE TREATMENT OF BENIGN SKIN TUMORS” (THE GENERAL HOSPITAL CORPORATION D/B/A MASSACHUSETTS …, priority 2015, published 2019).

Tested on: SK cells
Assay: SK cell viability (Alamar blue absorbance assay)
Type: cell-based, human
Settings: indicated concentrations, 48 hours
Description: FIG. 1 depicts a graph in which SK cells were treated with DSF and CuCl2 (indicated concentrations) for 48 hours and relative cellular viability was measured using Alamar blue (absorbance based) assay. A443654 Akt inhibitor was used as a control.
FIG. 2 depicts a graph in which SK cells and normal human keratinocytes were treated with DSF and CuCl2 (indicated concentrations) for 48 hours and relative cellular viability was measured using Alamar blue (absorbance based) assay. A443654 Akt inhibitor was used as a control.
FIG. 4 depicts a graph of SK cell viability after treatment with DSF and/or Cu^2+. A443654 Akt inhibitor was used as a control.
FIG. 5 depicts a graph of SK cell viability after treatment with DSF and/or Zn^2+. A443654 Akt inhibitor was used as a control.
FIGS. 8 and 9 depict graphs of SK cell viability after treatment with pyrithione and/or Cu^2+. A443654 Akt inhibitor was used as a control. Cells from different donors were used for each experiment

For `COc1ccc(C2=N[C@@H](c3ccc(Cl)cc3)[C@@H](c3ccc(Cl)cc3)N2C(=O)N2CCNC(=O)C2)c(OC(C)C)c1` [nutlin-3a], the “effect on SK cell viability” value was “impair SK viability”.
